Data: paper PMC9981206 (Cancer Research Communications, 2022)

Columns and labels:
WNT/β-catenin signaling = conditions: HEK293 cells, mean ± SD; read-out: WNT reporter IC50; cited from earlier work
[1] = tested on: COLO 320DM colon carcinoma cells; conditions: cited from earlier work
in vivo = format: in vivo, CB17-SCID mice; conditions: CB17-SCID, mouse, doses 0.33–10 mg/kg oral twice daily, 4 hours post last dosing, mass spectrometry
Protocol: (§1) The experiment using COLO 320DM (CCL-220, RRID: CVCL_0219, ATCC) xenografts was carried out as previously described ([40]) at Reaction Biology. […] Next, the mice were sacrificed, approximately 4 hours after first dose of the day. Protein and RNA extracts were prepared from four moderately sized tumors within each treatment group.

COLO 320DM xenografts = assay: in vivo; format: in vivo, CB17-SCID mice; conditions: for body weight changes: tumor-bearing CB17-SCID mice
Protocol: as §1

CCOc1ccc(-c2nnc([C@H]3C[C@H](NC(=O)c4cccc5nccnc45)C3)n2-c2ccccc2F)nc1 [OM-153]
IC50 (WNT/β-catenin signaling): 0.63 nM | COLO320DM GI25 ([1]; 5 days of cultivation): 2.5 nM | GI50 ([1]; 5 days of cultivation, read-out: COLO320DM GI50): 10 nM | COLO 320DM in vitro GI50 value ([1]; same value as 10 nmol/L): 5.1 ng/mL | concentration at 4 h (in vivo; plasma): > 10 nM | concentration at 4 h (in vivo; tumor): > 10 nM | body weight changes (COLO 320DM xenografts; 10 mg/kg oral twice daily): no changes in body weights that would be suggestive for toxicity | body weight changes (COLO 320DM xenografts; 3.3 and 1 mg/kg oral twice daily): statistically significant body weight reductions | β-catenin protein and WNT/β-catenin signaling target genes DKK1, APCDD1, NKD1 in tumors (COLO 320DM xenografts; immunoblot and real-time qRT-PCR, oral twice daily): dose-dependently reduced | AXIN1 and AXIN2 proteins in the tumor specimen (COLO 320DM xenografts; immunoblot, oral twice daily): stabilized
